We go through 4 compounds from ChEMBL document CHEMBL1124582, “Design of potential anti-HIV agents. 1. Mannosidase inhibitors” (J Med Chem, 1989).

A short description of this test: Inhibitory activity against Mannosidase in rat liver.

For orientation: IC50 means the concentration at which inhibition is half-maximal. Low readings indicate greater potency in that assay, high ones weaker potency in that assay. As for `O[C@@H]1[C@H]2[C@@H](O)CCCN2C[C@H]1O`, the IC50 was around 50 µM.

Consider `O[C@H]1[C@H]2[C@@H](O)CCCN2C[C@H]1O`, for which the IC50 was around 50 µM.

As for `O[C@H]1[C@@H]2[C@H](O)CCCN2C[C@H]1O`, the IC50 is around 10 µM.

In turn, `OC1CN2CCCCC2C1O` (centres undefined) displayed an IC50 of 7500 µM.
